From US4797471A, “Peptide derivatives having an inhibitory action on hydroxylating enzymes, a process for their preparation, agents containing them, and their use” (Hoechst Aktiengesellschaft, priority 1985, dated 1989)

Legend:
Proline hydroxylase = assay: Enzyme test: hydroxylation of underhydroxylated collagen, proline hydroxylase inhibition; format: biochemical; conditions: 50% inhibition of the enzyme reaction; Iron(II) ions, α-ketoglutarate and ascorbate
Source text: (§1) The inhibitory action of the substances according to the invention, for example on collagen biosynthesis, can be tested in an enzyme test in analogy to the method of B. Peterkovsky and R. DiBlasio, Anal. Biochem. 66, 279-286 (1975). This entails enzymatic hydroxylation of underhydroxylated collagen in the presence of IronlII) ions, α-ketoglutarate and ascorbate. The enzymes which can be used are prolyl 4-hydroxylase, prolyl 3-hydroxylase or lysl hydroxylase in a cell-free test medium. The inhibitory action can also be measured in cell or tissue culture and is reported as 50% inhibition of the enzyme reaction (IC50).

Lysine hydroxylase = assay: Enzyme test: hydroxylation of underhydroxylated collagen, lysine hydroxylase inhibition; format: biochemical; conditions: 50% inhibition of the enzyme reaction; Iron(II) ions, α-ketoglutarate and ascorbate
Source text: as §1

With `CC(=O)N1CCC[C@H]1C(=O)N[C@@H](CCCNC(=O)Cc1ccc(O)c(O)c1)C(=O)NCC(=O)O` [Ac--Pro--Orn(3,4-Dihydroxyphenylacetyl)-Gly--OH] the IC50 (Proline hydroxylase) was 155 µM and the IC50 (Lysine hydroxylase) was 70 µM.
`CC(=O)N[C@@H](CCCNC(=O)Cc1ccc(O)c(O)c1)C(=O)N1CCC[C@H]1C(=O)NCC(=O)O` [Ac--Orn(3,4-Dihydroxyphenylacetyl)-Pro--Gly--OH] was tested, and the IC50 (Proline hydroxylase) was 140 µM and the IC50 (Lysine hydroxylase) was 37 µM.
`CC(=O)N[C@@H](CCCNC(=O)c1cccc(O)c1O)C(=O)N1CCC[C@H]1C(=O)NCC(=O)O` [Ac-Orn(2,3-dihydroxybenzoyl)-Pro-Gly-OH] was tested, and the IC50 (Proline hydroxylase) was 38 µM and the IC50 (Lysine hydroxylase) was 7 µM.
`CC(=O)N[C@@H](CCCNC(=O)c1ccc(O)c(O)c1)C(=O)N1CCC[C@H]1C(=O)NCC(=O)O` [Ac--Orn(3,4-Dihydroxybenzoyl)-Pro--Gly--OH] was tested, and the IC50 (Proline hydroxylase) was 72 µM and the IC50 (Lysine hydroxylase) was 7 µM.
With `CC(=O)N[C@@H](CCCNC(=O)c1cc(O)c(O)c(O)c1)C(=O)N1CCC[C@H]1C(=O)NCC(=O)O` [Ac--Orn(3,4,5-Trihydroxybenzoyl)-Pro--Gly--OH] the IC50 (Proline hydroxylase) was 29 µM and the IC50 (Lysine hydroxylase) was 8 µM.
Work on `CC(=O)N1CCC[C@H]1C(=O)N[C@@H](CCCNC(=O)c1cc(O)c(O)c(O)c1)C(=O)NCC(=O)O` [Ac--Pro--Orn(3,4,5-Trihydroxybenzoyl)-Gly--OH] yielded an IC50 (Proline hydroxylase) of 17 µM and an IC50 (Lysine hydroxylase) of 26 µM.
`CC(=O)N1CCC[C@H]1C(=O)N[C@@H](CCCNC(=O)c1ccc(O)c(O)c1)C(=O)NCC(=O)O` [Ac-Pro-Orn(3,4-dihydroxybenzoyl)-Bly-OH] showed an IC50 (Proline hydroxylase) of 50 µM and an IC50 (Lysine hydroxylase) of 39 µM.
